The results in this text go back to patent publication US9150577B2, “Heterocyclic compounds containing an indole core” (Boehringer Ingelheim International GmbH, priority 2009, dated 2015).

In this assay the target is Human RSK2 (Homo sapiens (Human), UniProt P51812). The assay is described as follows: Human RSK2 assay (Kinase Glo Plus, residual ATP).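 Also: recombinant human RSK2 phosphorylating a substrate peptide, 90 min at 28 °C, leftover ATP read by luminescence, RLU scaled between no-kinase background and uninhibited kinase controls, 4-parameter fit.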 Type of assay: biochemical. (Kinase-Glo reads ATP consumption through a luciferase reaction.)
Sequence of Human RSK2 (P51812 whole entry): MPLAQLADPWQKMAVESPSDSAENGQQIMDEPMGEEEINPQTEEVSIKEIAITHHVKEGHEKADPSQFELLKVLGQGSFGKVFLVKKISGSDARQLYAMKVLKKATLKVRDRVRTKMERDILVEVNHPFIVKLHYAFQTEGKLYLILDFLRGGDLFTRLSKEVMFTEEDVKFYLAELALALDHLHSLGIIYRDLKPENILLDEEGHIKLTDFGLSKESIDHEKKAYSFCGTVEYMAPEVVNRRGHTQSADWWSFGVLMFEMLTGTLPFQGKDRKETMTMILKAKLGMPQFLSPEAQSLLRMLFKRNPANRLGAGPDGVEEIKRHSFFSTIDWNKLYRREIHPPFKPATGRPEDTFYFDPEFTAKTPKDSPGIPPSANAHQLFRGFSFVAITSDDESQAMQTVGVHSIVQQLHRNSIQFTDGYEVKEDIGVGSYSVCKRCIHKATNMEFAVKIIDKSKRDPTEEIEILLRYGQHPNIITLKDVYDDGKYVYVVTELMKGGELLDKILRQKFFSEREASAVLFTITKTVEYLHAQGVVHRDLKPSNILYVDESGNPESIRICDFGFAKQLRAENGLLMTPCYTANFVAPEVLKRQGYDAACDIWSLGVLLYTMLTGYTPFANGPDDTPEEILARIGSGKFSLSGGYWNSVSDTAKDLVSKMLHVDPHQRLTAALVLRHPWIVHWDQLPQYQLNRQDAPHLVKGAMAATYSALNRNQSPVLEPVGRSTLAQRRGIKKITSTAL
Usually IC50 stands for the concentration that inhibits the measured activity by half. In the case of `CCn1c(NC(=O)c2ccc3cc4n(c3c2)C(C)CNC4=O)nc2ccccc21` (stereo not drawn) [Example 83, N-(1-ethyl-1H-benzimidazol-2-yl)-4-methyl-1-oxo-1,2,3,4-tetrahydropyrazino[1,2-a]indole-7-carboxamide], the half-inhibitory concentration (IC50) was determined as 0.63 nM.

Regarding `O=C(Nc1cnn(Cc2ccccc2)c1)c1ccc2cc3n(c2c1)CC1(CCOCC1)CNC3=O` [Example 31, N-(1-benzyl-1H-pyrazol-4-yl)-1-oxo-2,2′,3,3′,5′,6′-hexahydro-1H-spiro[1,4-diazepino[1,2-a]indole-4,4′-pyran]-8-carboxamide], the IC50 turned out to be 900 nM.

`CC(C)c1cc(NC(=O)c2ccc3cc4n(c3c2)CCCNC4=O)no1` [Example 213, 1-oxo-N-[5-(propan-2-yl)-1,2-oxazol-3-yl]-2,3,4,5-tetrahydro-1H-[1,4]diazepino[1,2-a]indole-8-carboxamide]: the IC50 turned out to be 66 nM.

With `O=C(Nc1cc(-c2ccc(F)cc2)on1)c1ccc2cc3n(c2c1)CCCNC3=O` [Example 184, N-[5-(4-fluorophenyl)-1,2-oxazol-3-yl]-1-oxo-2,3,4,5-tetrahydro-1H-[1,4]diazepino[1,2-a]indole-8-carboxamide], the IC50 came to 155 nM.

On to `CS(=O)(=O)c1ccc2c(c1)nc(NC(=O)c1ccc3cc4n(c3c1)CC1(CCNCC1)CNC4=O)n2CC(F)(F)F` [Example 239, N-[5-(methylsulfonyl)-1-(2,2,2-trifluoroethyl)-1H-benzimidazol-2-yl]-1-oxo-2,3-dihydro-1H-spiro[1,4-diazepino[1,2-a]indole-4,4′-piperidine]-8-carboxamide], for which the IC50 was 51 nM.

For the molecule `CC(C)(CO)n1c(NC(=O)c2ccc3cc4n(c3c2)CCCNC4=O)nc2ccccc21` [Example 66, N-[1-(1-hydroxy-2-methylpropan-2-yl)-1H-benzimidazol-2-yl]-1-oxo-2,3,4,5-tetrahydro-1H-[1,4]diazepino[1,2-a]indole-8-carboxamide], the IC50 worked out at 610 nM.

As to `Cc1ccc(-c2cc(NC(=O)c3ccc4cc5n(c4c3)CCCNC5=O)on2)cc1` [Example 199, N-[3-(4-methylphenyl)-1,2-oxazol-5-yl]-1-oxo-2,3,4,5-tetrahydro-1H-[1,4]diazepino[1,2-a]indole-8-carboxamide], the concentration for half-maximal inhibition (IC50) turned out to be 115 nM.

As to `Cc1cc(NC(=O)c2ccc3cc4n(c3c2)C(C)CCNC4=O)no1` (stereo not drawn) [Example 159, 5-methyl-N-(5-methyl-1,2-oxazol-3-yl)-1-oxo-2,3,4,5-tetrahydro-1H-[1,4]diazepino[1,2-a]indole-8-carboxamide], the concentration for half-maximal inhibition (IC50) was 12 nM.

`CC1CCNC(=O)c2cc3ccc(C(=O)Nc4nc5ccccc5[nH]4)cc3n21` (stereo not drawn) [Example 58, N-(1H-benzimidazol-2-yl)-5-methyl-1-oxo-2,3,4,5-tetrahydro-1H-[1,4]diazepino[1,2-a]indole-8-carboxamide]: the IC50 is 0.77 nM.

In the case of `CN1CCC(n2c(NC(=O)c3ccc4cc5n(c4c3)CCCNC5=O)nc3ccccc32)CC1` [Example 77, N-[1-(1-methylpiperidin-4-yl)-1H-benzimidazol-2-yl]-1-oxo-2,3,4,5-tetrahydro-1H-[1,4]diazepino[1,2-a]indole-8-carboxamide], the half-maximal inhibitory concentration (IC50) is 14 nM.

For `CCn1c(NC(=O)c2ccc3cc4n(c3c2)[C@@H](C)[C@@H](C)NC4=O)nc2ccccc21` (relative stereo) [Example 79, N-(1-ethyl-1H-benzimidazol-2-yl)-cis-3,4-dimethyl-1-oxo-1,2,3,4-tetrahydropyrazino[1,2-a]indole-7-carboxamide], the IC50 is 0.64 nM.

On to `Cn1cc(NC(=O)c2ccc3cc4n(c3c2)CCCNC4=O)ccc1=O` [Example 116, N-(1-methyl-6-oxo-1,6-dihydropyridin-3-yl)-1-oxo-2,3,4,5-tetrahydro-1H-[1,4]diazepino[1,2-a]indole-8-carboxamide], for which the IC50 amounted to 110 nM.

Turning to `Cc1cc(NC(=O)c2ccc3cc4n(c3c2)[C@H](C)[C@H](C)NC4=O)no1` [Example 171, (3S,4R)-3,4-dimethyl-N-(5-methyl-1,2-oxazol-3-yl)-1-oxo-1,2,3,4-tetrahydropyrazino[1,2-a]indole-7-carboxamide], the IC50 was determined as 4 nM.

For `CC1(C)CNC(=O)c2cc3ccc(C(=O)Nc4cnn(Cc5ccccc5)c4)cc3n2C1` [Example 122, N-(1-benzyl-1H-pyrazol-4-yl)-4,4-dimethyl-1-oxo-2,3,4,5-tetrahydro-1H-[1,4]diazepino[1,2-a]indole-8-carboxamide], the IC50 amounted to 110 nM.

Take `O=C(Nc1cccnc1)c1ccc2cc3n(c2c1)CC(F)(F)CNC3=O` [Example 152, 4,4-difluoro-1-oxo-N-(pyridin-3-yl)-2,3,4,5-tetrahydro-1H-[1,4]diazepino[1,2-a]indole-8-carboxamide]: the IC50 worked out at 1700 nM.

As to `N#Cc1ccccc1NC(=O)c1ccc2cc3n(c2c1)CCCNC3=O` [Example 217, N-(2-cyanophenyl)-1-oxo-2,3,4,5-tetrahydro-1H-[1,4]diazepino[1,2-a]indole-8-carboxamide], the IC50 worked out at 7000 nM.

Take `CC1CNC(=O)c2cc3ccc(C(=O)Nc4nc5ccccc5n4C)cc3n2C1` (stereo not drawn) [Example 62, 4-methyl-N-(1-methyl-1H-benzimidazol-2-yl)-1-oxo-2,3,4,5-tetrahydro-1H-[1,4]diazepino[1,2-a]indole-8-carboxamide]: the IC50 came to 8.2 nM.

For `CN(C)c1cccc(Cn2cc(NC(=O)c3ccc4cc5n(c4c3)CCCNC5=O)cn2)c1` [Example 120, N-{1-[3-(dimethylamino)benzyl]-1H-pyrazol-4-yl}-1-oxo-2,3,4,5-tetrahydro-1H-[1,4]diazepino[1,2-a]indole-8-carboxamide], the concentration for half-maximal inhibition (IC50) is 3.8 nM.

On to `Cn1c(NC(=O)c2ccc3cc4n(c3c2)CCCNC4=O)nc2cc(Cl)ccc21` [Example 49, N-(5-chloro-1-methyl-1H-benzimidazol-2-yl)-1-oxo-2,3,4,5-tetrahydro-1H-[1,4]diazepino[1,2-a]indole-8-carboxamide], for which the IC50 is 26 nM.

On to `CC1(C)CNC(=O)c2cc3ccc(C(=O)Nc4cnn(Cc5ccccc5)c4)cc3n21` [Example 134, N-(1-benzyl-1H-pyrazol-4-yl)-4,4-dimethyl-1-oxo-1,2,3,4-tetrahydropyrazino[1,2-a]indole-7-carboxamide], for which the IC50 is 1.8 nM.

Regarding `CC(C)(C)c1cc(NC(=O)c2ccc3cc4n(c3c2)CCCNC4=O)sn1` [Example 3, N-(3-tert-butyl-1,2-thiazol-5-yl)-1-oxo-2,3,4,5-tetrahydro-1H-[1,4]diazepino[1,2-a]indole-8-carboxamide], the IC50 was 240 nM.

With `CC(C)n1ncc2cc(NC(=O)c3ccc4cc5n(c4c3)[C@@H](C)[C@@H](C)NC5=O)cnc21` (relative stereo) [Example 18, cis-3,4-dimethyl-1-oxo-N-[1-(propan-2-yl)-1H-pyrazolo[3,4-b]pyridin-5-yl]-1,2,3,4-tetrahydropyrazino[1,2-a]indole-7-carboxamide], the IC50 came to 8.1 nM.

Consider `CC1(C)CNC(=O)c2cc3ccc(C(=O)Nc4ccccc4C(N)=O)cc3n21` [Example 221, N-(2-carbamoylphenyl)-4,4-dimethyl-1-oxo-1,2,3,4-tetrahydropyrazino[1,2-a]indole-7-carboxamide], for which the IC50 worked out at 8.2 nM.

As for `Cc1cc(NC(=O)c2ccc3cc4n(c3c2)CC2(CCNCC2)CNC4=O)no1` [Example 237, N-(5-methyl-1,2-oxazol-3-yl)-1-oxo-2,3-dihydro-1H-spiro[1,4-diazepino[1,2-a]indole-4,4′-piperidine]-8-carboxamide], the IC50 was 6300 nM.

For the molecule `CC1CCNC(=O)c2cc3ccc(C(=O)Nc4cc(C(C)(C)C)on4)cc3n21` (stereo not drawn) [Example 160, N-(5-tert-butyl-1,2-oxazol-3-yl)-5-methyl-1-oxo-2,3,4,5-tetrahydro-1H-[1,4]diazepino[1,2-a]indole-8-carboxamide], the IC50 was 32 nM.

With `CC1(C)CNC(=O)c2cc3ccc(C(=O)Nc4cccnc4)cc3n2C1` [Example 9, 4,4-dimethyl-1-oxo-N-(pyridin-3-yl)-2,3,4,5-tetrahydro-1H-[1,4]diazepino[1,2-a]indole-8-carboxamide], the IC50 was found to be 4600 nM.

With `C[C@@H]1CNC(=O)c2cc3ccc(C(=O)Nc4cccnc4)cc3n2[C@H]1C` (relative stereo) [Example 151, Trans-4,5-dimethyl-1-oxo-N-(pyridin-3-yl)-2,3,4,5-tetrahydro-1H-[1,4]diazepino[1,2-a]indole-8-carboxamide], the IC50 was 1100 nM.

Consider `C[C@H]1CCNC(=O)c2cc3ccc(C(=O)Nc4cnn(Cc5ccccc5)c4)cc3n21` [Example 144, (5S)-N-(1-benzyl-1H-pyrazol-4-yl)-5-methyl-1-oxo-2,3,4,5-tetrahydro-1H-[1,4]diazepino[1,2-a]indole-8-carboxamide], for which the 50% inhibitory concentration (IC50) turned out to be 80 nM.

Regarding `O=C(Nc1cnn(Cc2ccccc2)c1)c1ccc2cc3n(c2c1)CC1(CCNCC1)CNC3=O` [Example 238, N-(1-benzyl-1H-pyrazol-4-yl)-1-oxo-2,3-dihydro-1H-spiro[1,4-diazepino[1,2-a]indole-4,4′-piperidine]-8-carboxamide], the IC50 worked out at 350 nM.

Regarding `Cc1cc(NC(=O)c2ccc3cc4n(c3c2)[C@@H](C)CNC4=O)no1` [Example 132, (4S)-4-methyl-N-(5-methyl-1,2-oxazol-3-yl)-1-oxo-1,2,3,4-tetrahydropyrazino[1,2-a]indole-7-carboxamide], the IC50 stood at 495 nM.

As to `O=C(Nc1nc2cc(Cl)cc(CN3CCOCC3)c2[nH]1)c1ccc2cc3n(c2c1)CCCNC3=O` [Example 46, N-[5-chloro-7-(morpholin-4-ylmethyl)-1H-benzimidazol-2-yl]-1-oxo-2,3,4,5-tetrahydro-1H-[1,4]diazepino[1,2-a]indole-8-carboxamide], the IC50 came to 8.7 nM.

Turning to `Cn1ncc2cc(NC(=O)c3ccc4cc5n(c4c3)CCCNC5=O)cnc21` [Example 20, N-(1-methyl-1H-pyrazolo[3,4-b]pyridin-5-yl)-1-oxo-2,3,4,5-tetrahydro-1H-[1,4]diazepino[1,2-a]indole-8-carboxamide], the concentration for half-maximal inhibition (IC50) was found to be 87 nM.

In the case of `O=C(Nc1nc2cc(C(F)(F)F)ccc2[nH]1)c1ccc2cc3n(c2c1)CCCNC3=O` [Example 43, 1-oxo-N-[5-(trifluoromethyl)-1H-benzimidazol-2-yl]-2,3,4,5-tetrahydro-1H-[1,4]diazepino[1,2-a]indole-8-carboxamide], the IC50 is 24 nM.
